Results from patent publication US9133122B2, “Amide compounds, compositions and uses thereof” (EVOTEC AG, priority 2008, dated 2015).

Key:
hP2X3 = target: T1, hP2X3 (Homo sapiens, UniProt P56373); assay: Calcium uptake assay (Ca influx), P2X antagonist assay, P2X3 homomer; assay type: cell-based; conditions: inhibition of agonist-induced calcium influx
T1 construct: expressed in transfected cells
T1 sequence (P56373 1-397): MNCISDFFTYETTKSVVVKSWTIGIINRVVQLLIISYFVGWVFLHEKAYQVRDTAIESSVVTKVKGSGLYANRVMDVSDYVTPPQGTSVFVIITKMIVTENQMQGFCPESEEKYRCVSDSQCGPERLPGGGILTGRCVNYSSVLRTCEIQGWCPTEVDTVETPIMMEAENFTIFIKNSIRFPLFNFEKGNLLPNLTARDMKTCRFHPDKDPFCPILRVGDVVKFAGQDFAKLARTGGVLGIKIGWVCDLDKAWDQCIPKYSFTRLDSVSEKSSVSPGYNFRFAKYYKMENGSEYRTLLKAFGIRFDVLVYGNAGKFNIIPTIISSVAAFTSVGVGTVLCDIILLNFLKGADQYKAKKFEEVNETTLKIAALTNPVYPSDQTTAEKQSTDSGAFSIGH
Description: (§1) Human P2X3 (Accession no. NM_002559), P2X2 (Accession no. NM_170682) and Rat P2X3 (Accession no. NM_031075) and P2X2 (Accession no. NM_053656) are cloned into a mammalian expression vector (e.g., pcDNAS/TO or pcDNA3 Invitrogen). The human P2X2/3 chimera clone is created as described by Neelands et al, and then cloned into an expression vector as above. Receptors are expressed in cells (e.g., HEK293 or 1321N1 (obtained from the ECACC)) via transient transfection using standard lipid mediated transfection, or by creation of stable transfectants for each receptor. For expression of the P2X2/3 heteromeric receptor, the P2X3 expression vector is stably transfected into a cell line already stably expressing P2X2. P2X2/3 heteromer function is isolated using pharmacological methods. Cell lines are maintained in DMEM+5% Glutamax, the appropriate level of selective antibiotic, and 10% heat inactivated FBS.
(§2) Functional activity of compounds at the P2X receptor is determined by measuring their ability to inhibit agonist-induced calcium influx. Compounds are tested for antagonist activity against the P2X2/3 chimera, the P2X3 homomer, or the P2X2/3 heteromer. At the start of each screening day, the agonist EC50 is determined. Compound % inhibition or IC50s are subsequently determined using a predetermined agonist concentration (EC50-90 depending on cell line) as a stimulus. The agonists used are αβMeATP, ATP, or other ATP analogs. Compounds may be tested at concentrations ranging from 1 pM to 10 μM.
(§3) To test for antagonist activity, cells expressing the appropriate receptor are seeded onto 96 or 384 well plates 18-24 hours prior to assay. On the day of the assay, cells are loaded with calcium-sensitive fluorescent dye (e.g., Fluo-4 no wash reagent-Invitrogen cat#F36206, or the BD™ PBX Calcium Assay Kit-BD cat #640175) in Hank's Buffered Salt Solution (HBSS) with up to 10 mM supplemental CaCl2. Plates are incubated at 37° C. and then equilibrated at room temperature. Antagonism of agonist-induced calcium influx is measured using a fluorescent imaging plate reader (e.g. FLIPR^TETRA, Molecular Devices, Sunnyvale, Calif.). The assay comprises two stages: a pre-treatment phase followed by a treatment phase. Compounds may be tested as follows: For the pre-treatment phase, 50 μL of 3× concentration of test compound in HBSS is added to cells containing 100 μL of dye loading media to achieve a final concentration of 1× test compound. For the treatment phase, at a set interval after pre-treatment (1-30 minutes), 50 μL of 1× test compound plus 4× agonist solution is added, resulting in a final concentration of 1× compound and 1× agonist. Fluorescence is measured at 0.1-3 second intervals—with an excitation wavelength of 494 nm and an emission wavelength of 515 nm. Responses are measured as (peak fluorescence after agonist addition) minus (baseline fluorescence prior to treatment). Percent inhibition is calculated as follows:
(§4) [formula] IC50 values are determined by analyzing dose response data in a 4 parameter logistic fit using GraphPad Prizm.
(§5) The following compounds have been or can be prepared according to the synthetic methods described herein. A calcium uptake assay was performed as described above and the activity of each compound is expressed as follows: […]

hP2X2/3H = target: T2, hP2X2/3H (Homo sapiens, UniProt P56373+Q9UBL9); assay: Calcium uptake assay (Ca influx), P2X antagonist assay, P2X2/3 heteromer; assay type: cell-based; conditions: inhibition of agonist-induced calcium influx
T2 construct: expressed in transfected cells
T2 sequence (P56373 1-397): T1 sequence (P56373 1-397)
T2 sequence (Q9UBL9 1-471): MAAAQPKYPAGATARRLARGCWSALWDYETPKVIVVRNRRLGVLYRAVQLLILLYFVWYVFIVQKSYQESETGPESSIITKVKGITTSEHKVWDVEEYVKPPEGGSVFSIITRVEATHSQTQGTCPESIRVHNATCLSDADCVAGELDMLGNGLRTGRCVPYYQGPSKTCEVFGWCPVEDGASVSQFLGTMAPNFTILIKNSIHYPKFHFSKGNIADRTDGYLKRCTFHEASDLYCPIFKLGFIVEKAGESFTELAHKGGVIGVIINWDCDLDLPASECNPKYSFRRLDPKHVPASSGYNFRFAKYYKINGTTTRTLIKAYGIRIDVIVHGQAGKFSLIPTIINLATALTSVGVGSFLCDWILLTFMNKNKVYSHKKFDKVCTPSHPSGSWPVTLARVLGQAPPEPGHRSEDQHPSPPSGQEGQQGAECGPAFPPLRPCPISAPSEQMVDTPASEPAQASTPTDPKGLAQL
Description: as §1, §2, §3, §4, §5

IC50 (hP2X3)	IC50 (hP2X2/3H)	SMILES
50.8 nM	35.6 nM	Cc1ccc(-c2cc(C(=O)NCc3ccc(C)nc3)cc(-c3ccc(C)cc3C#N)c2)nc1 [Compound 35, 2′-Cyano-4′-methyl-5-(5-methyl-pyridin-2-yl)-biphenyl-3-carboxylic acid (6-methyl-pyridin-3-ylmethyl)-amide]
62.6 nM	295 nM	COCc1ccccc1-c1cc(C(=O)N[C@H](C)c2cnc(C)nc2)cc(-c2ccccn2)c1 [Compound 53, 2′-Methoxymethyl-5-pyridin-2-yl-biphenyl-3-carboxylic acid [(R)-1-(2-methyl-pyrimidin-5-yl)-ethyl]-amide]
25.8 nM	219 nM	Cc1ccc(-c2cc(C(=O)NCc3cnc(C)nc3)cc(-c3ccc(C)cn3)c2)nc1 [Compound 29, 3,5-Bis-(5-methyl-pyridin-2-yl)-N-(2-methyl-pyrimidin-5-ylmethyl)-benzamide]
65.8 nM	127 nM	Cc1ccc(-c2cc(C(=O)NCc3ccc(C)nc3)cc(N3CCC[C@H]3CO)c2)cc1 [Compound 59, (S)-5-(2-(Hydroxymethyl)pyrrolidin-1-yl)-4′-methyl-N-((6-methylpyridin-3-yl)methyl)biphenyl-3-carboxamide]
33.2 nM	254 nM	Cc1ccc(-c2cc(C(=O)NCc3cnc(C)nc3)cc(N3CCOCC3=O)c2)c(C#N)c1 [Compound 64, 2′-Cyano-4′-methyl-5-(3-oxo-morpholin-4-yl)-biphenyl-3-carboxylic acid (2-methyl-pyrimidin-5-ylmethyl)-amide]
85.8 nM	729 nM	Cc1ccc(-c2cc(C(=O)NCc3cnc(C)nc3)cc(N3CCNCC3=O)c2)c(C#N)c1 [Compound 66, 2′-Cyano-4′-methyl-5-(2-oxo-piperazin-1-yl)-biphenyl-3-carboxylic acid (2-methyl-pyrimidin-5-ylmethyl)-amide]
73.2 nM	54.9 nM	Cc1ccc(-c2cc(C(=O)NCc3ccc(C)nc3)cc(-c3ccccc3F)c2)nc1 [Compound 15, 2′-Fluoro-5-(5-methyl-pyridin-2-yl)-biphenyl-3-carboxylic acid (6-methyl-pyridin-3-ylmethyl)-amide]
12.7 nM	27.5 nM	Cc1ccc(-c2cc(C(=O)N[C@H](C)c3cnc(C)nc3)cc(-c3cnccc3C#N)c2)nc1 [Compound 55, 3-(4-Cyano-pyridin-3-yl)-5-(5-methyl-pyridin-2-yl)-N-[(R)-1-(2-methyl-pyrimidin-5-yl)-ethyl]-benzamide]
759 nM	1270 nM	COc1ccc(-c2cc(C(=O)NCc3ccc(C)nc3)cc(-c3ccc(C)cc3)c2)cc1OC [Compound 10, 3″,4″-Dimethoxy-4-methyl-[1,1′;3′,1″]terphenyl-5′-carboxylic acid (6-methyl-pyridin-3-ylmethyl)-amide]
48.6 nM	122 nM	Cc1ccc(-c2cc(C(=O)NCc3ccc(C)nc3)cc(N3CCCCC3=O)c2)cc1 [Compound 37, 4′-Methyl-N-((6-methylpyridin-3-yl)methyl)-5-(2-oxopiperidin-1-yl)biphenyl-3-carboxamide]
24.1 nM	126 nM	Cc1ncc([C@@H](C)NC(=O)c2cc(-c3ccccn3)cc(-c3ccccc3C#N)c2)cn1 [Compound 43, 2′-Cyano-5-pyridin-2-yl-biphenyl-3-carboxylic acid [(R)-1-(2-methyl-pyrimidin-5-yl)-ethyl]-amide]
14.6 nM	13.4 nM	COCc1ccccc1-c1cc(C(=O)N[C@H](C)c2cnc(C)nc2)cc(-c2ccc(C)cn2)c1 [Compound 45, 2′-Methoxymethyl-5-(5-methyl-pyridin-2-yl)-biphenyl-3-carboxylic acid [(R)-1-(2-methyl-pyrimidin-5-yl)-ethyl]-amide]
91.6 nM	293 nM	Cc1ncc([C@@H](C)NC(=O)c2cc(-c3ccccn3)cc(-c3ccccc3CO)c2)cn1 [Compound 44, 2′-Hydroxymethyl-5-pyridin-2-yl-biphenyl-3-carboxylic acid [(R)-1-(2-methyl-pyrimidin-5-yl)-ethyl]-amide]
31.9 nM	1360 nM	Cc1ccc(-c2cc(C(=O)N[C@@H](C)CO)cc(-c3cccc(F)c3F)c2)c(C#N)c1 [Compound 85, 2-Cyano-2″,3″-difluoro-4-methyl-[1,1′;3′,1″]terphenyl-5′-carboxylic acid ((S)-2-hydroxy-1-methyl-ethyl)-amide]
26.2 nM	37.5 nM	Cc1ccc(-c2cc(C(=O)N[C@H](C)c3cnc(C)nc3)cc(-c3cccc(F)c3C#N)c2)nc1 [Compound 52, 2′-Cyano-3′-fluoro-5-(5-methyl-pyridin-2-yl)-biphenyl-3-carboxylic acid [(R)-1-(2-methyl-pyrimidin-5-yl)-ethyl]-amide]
318 nM	172 nM	Cc1ccc(-c2cc(C(=O)NCc3ccc(C)nc3)cc(-c3ccccc3OC(F)(F)F)c2)nc1 [Compound 14, 5-(5-Methyl-pyridin-2-yl)-2′-trifluoromethoxy-biphenyl-3-carboxylic acid (6-methyl-pyridin-3-ylmethyl)-amide]
351 nM	218 nM	Cc1ccc(-c2cc(C(=O)N[C@H](C)CN3CCOCC3)cc(-c3cc(C(F)(F)F)ccc3C#N)c2)nc1 [Compound 80, (R)-2′-cyano-5-(5-methylpyridin-2-yl)-N-(1-morpholinopropan-2-yl)-5′-(trifluoromethyl)biphenyl-3-carboxamide]
66 nM	83.5 nM	Cc1ccc(-c2cc(C(=O)NCc3ccc(C)nc3)cc(-c3ccccc3CN(C)C)c2)nc1 [Compound 28, 2′-Dimethylaminomethyl-5-(5-methyl-pyridin-2-yl)-biphenyl-3-carboxylic acid (6-methyl-pyridin-3-ylmethyl)-amide]
485 nM	1060 nM	COc1cccc(-c2cc(C(=O)NCc3ccc(C)nc3)cc(-c3ccc(C)cc3)c2)c1 [Compound 11, 3″-Methoxy-4-methyl-[1,1′;3′,1″]terphenyl-5′-carboxylic acid (6-methyl-pyridin-3-ylmethyl)-amide]
55.2 nM	509 nM	Cc1ccc(-c2cc(C(=O)N[C@H](C)c3cnc(C)nc3)cc(-c3ccccc3C(=O)N(C)C)c2)nc1 [Compound 54, 5′-(5-Methyl-pyridin-2-yl)-biphenyl-2,3′-dicarboxylic acid 2-dimethylamide 3′-{[(R)-1-(2-methyl-pyrimidin-5-yl)-ethyl]-amide}]
11.8 nM	25.7 nM	Cc1ccc(-c2cc(C(=O)NCc3ccc(C)nc3)cc(N3CCC[C@@H]3CO)c2)nc1 [Compound 63, 3-((R)-2-Hydroxymethyl-pyrrolidin-1-yl)-5-(5-methyl-pyridin-2-yl)-N-(6-methyl-pyridin-3-ylmethyl)-benzamide]
